# Measured values as given in the supplement of paper PMC10307832.
# Compound: C1CC(C2=C(C1)C3=C(N2)C=CC(=C3)Cl)C(=O)N [Selisistat] + O=C(CCCCCCC(=O)Nc1ccccc1)NO [Vorinostat] (partner 1 µM)
# Assay: relative viability (nuclei count vs DMSO), 5 days (fraction); higher = more cells survive
# Settings: first compound 0.4 µM
# Procedure, shortened: (§1)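 For relative viability, nuclei counts in treated wells were divided by those in vehicle wells. Lung cancer cell lines had been pin-tool dosed in 1536-well plates the day after seeding and cultured for 5 days, then fixed and stained in one step (final 0.05% Triton X-100, 1% formaldehyde, 1 ug/ml Hoechst) and imaged at 4×. Doses were one drug alone or a fixed anchor-drug dose plus five library-drug doses (not always all listed) in √10 steps, and values are duplicate-plate medians.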
row,Cell Line,relative viability
1,LXF-289,0.78
2,NCI-H23,0.647
3,NCI-H647,0.567
4,CAL-12T,0.66
5,NCI-H1651,0.625
6,EPLC-272H,0.453
7,NCI-H2228,0.724
8,NCI-H1355,0.686
9,NCI-H3122,0.977
10,NCI-H1437,0.875
11,NCI-H1755,0.831
12,NCI-H2023,0.662
13,HCC-15,0.912
14,NCI-H1793,0.899
15,PC-14,0.914
16,EKVX,0.708
17,LC-2-ad,0.769
18,NCI-H1944,0.563
19,NCI-H1975,0.734
20,RERF-LC-KJ,0.665
21,ABC-1,1.38
22,NCI-H358,0.766
23,NCI-H650,0.396
24,PC-3 [JPC-3],0.899

# Same assay, conditions: first compound 1.265 µM
row,Cell Line,relative viability
1,LXF-289,0.83
2,NCI-H23,0.597
3,NCI-H647,0.604
4,CAL-12T,0.727
5,NCI-H1651,0.672
6,EPLC-272H,0.729
7,NCI-H2228,0.5
8,NCI-H1355,0.696
9,NCI-H3122,0.919
10,NCI-H1437,0.837
11,NCI-H1755,0.903
12,NCI-H2023,0.786
13,HCC-15,0.931
14,NCI-H1793,0.679
15,PC-14,0.764
16,EKVX,0.757
17,LC-2-ad,0.704
18,NCI-H1944,0.526
19,NCI-H1975,0.731
20,RERF-LC-KJ,0.759
21,ABC-1,1.28
22,NCI-H358,0.636
23,NCI-H650,0.438
24,PC-3 [JPC-3],0.979

# Same assay, conditions: first compound 4 µM
row,Cell Line,relative viability
1,LXF-289,0.753
2,NCI-H647,0.777
3,CAL-12T,1.05
4,NCI-H1651,0.552
5,EPLC-272H,0.52
6,NCI-H2228,1
7,NCI-H1355,0.704
8,NCI-H1437,0.886
9,NCI-H1755,0.975
10,NCI-H2023,0.784
11,HCC-15,0.875
12,PC-14,0.843
13,LC-2-ad,0.774
14,NCI-H1944,0.51
15,NCI-H1975,0.752
16,RERF-LC-KJ,0.731
17,NCI-H358,0.686
18,NCI-H650,0.632

# Same assay, conditions: first compound 12.65 µM
row,Cell Line,relative viability
1,LXF-289,0.799
2,NCI-H23,0.663
3,NCI-H647,0.639
4,CAL-12T,0.766
5,NCI-H1651,0.638
6,EPLC-272H,0.529
7,NCI-H2228,0.725
8,NCI-H1355,0.719
9,NCI-H3122,1.09
10,NCI-H1437,0.876
11,NCI-H1755,0.766
12,NCI-H2023,0.674
13,HCC-15,0.878
14,NCI-H1793,0.88
15,PC-14,0.776
16,EKVX,0.903
17,LC-2-ad,0.806
18,NCI-H1944,0.547
19,NCI-H1975,0.687
20,RERF-LC-KJ,0.763
21,ABC-1,1.09
22,NCI-H358,0.778
23,NCI-H650,0.481
24,PC-3 [JPC-3],0.748

# Same assay, conditions: first compound 40 µM
row,Cell Line,relative viability
1,LXF-289,0.961
2,NCI-H23,0.802
3,NCI-H647,0.766
4,CAL-12T,0.768
5,NCI-H1651,0.622
6,EPLC-272H,0.693
7,NCI-H2228,1.08
8,NCI-H1355,0.798
9,NCI-H3122,1.34
10,NCI-H1437,0.74
11,NCI-H1755,0.928
12,NCI-H2023,0.853
13,HCC-15,1.07
14,NCI-H1793,0.781
15,PC-14,0.931
16,EKVX,0.655
17,LC-2-ad,0.764
18,NCI-H1944,0.593
19,NCI-H1975,0.691
20,RERF-LC-KJ,0.708
21,ABC-1,1.19
22,NCI-H358,0.8
23,NCI-H650,0.548
24,PC-3 [JPC-3],0.691

# Compound: C1CC(C2=C(C1)C3=C(N2)C=CC(=C3)Cl)C(=O)N [Selisistat] + CCNC(=O)c1noc(-c2cc(C(C)C)c(O)cc2O)c1-c1ccc(CN2CCOCC2)cc1 [Luminespib] (partner 0.01 µM)
# Assay: as above
# Settings: first compound 0.4 µM
# Procedure, shortened: as §1
row,Cell Line,relative viability
1,LXF-289,0.601
2,NCI-H23,0.188
3,NCI-H647,0.119
4,CAL-12T,0.546
5,NCI-H1651,1.06
6,EPLC-272H,0.213
7,NCI-H2228,0.153
8,NCI-H1355,0.739
9,NCI-H3122,0.0986
10,NCI-H1437,1.1
11,NCI-H1755,0.415
12,NCI-H2023,0.664
13,HCC-15,0.329
14,NCI-H1793,0.185
15,PC-14,0.141
16,EKVX,0.844
17,LC-2-ad,1.13
18,NCI-H1944,0.743
19,NCI-H1975,0.147
20,RERF-LC-KJ,1.24
21,ABC-1,0.477
22,NCI-H358,0.435
23,NCI-H650,0.874
24,PC-3 [JPC-3],0.784

# Same assay, conditions: first compound 1.265 µM
row,Cell Line,relative viability
1,LXF-289,0.565
2,NCI-H23,0.203
3,NCI-H647,0.205
4,CAL-12T,0.326
5,NCI-H1651,0.827
6,EPLC-272H,0.409
7,NCI-H2228,0.101
8,NCI-H1355,0.834
9,NCI-H3122,0.102
10,NCI-H1437,1.12
11,NCI-H1755,0.315
12,NCI-H2023,0.633
13,HCC-15,0.205
14,NCI-H1793,0.166
15,PC-14,0.151
16,EKVX,0.894
17,NCI-H1944,0.58
18,NCI-H1975,0.301
19,RERF-LC-KJ,1.02
20,ABC-1,0.483
21,NCI-H358,0.341
22,NCI-H650,0.772
23,PC-3 [JPC-3],0.68

# Same assay, conditions: first compound 4 µM
row,Cell Line,relative viability
1,LXF-289,0.696
2,NCI-H647,0.146
3,CAL-12T,0.275
4,NCI-H1651,0.836
5,NCI-H2228,0.152
6,NCI-H1355,0.596
7,NCI-H3122,0.1
8,NCI-H1437,1.09
9,NCI-H1755,0.619
10,NCI-H2023,0.648
11,EKVX,0.814
12,LC-2-ad,1.02
13,NCI-H1975,0.168
14,RERF-LC-KJ,1.27
15,NCI-H650,0.894
16,PC-3 [JPC-3],0.6

# Same assay, conditions: first compound 12.65 µM
row,Cell Line,relative viability
1,LXF-289,0.686
2,NCI-H23,0.204
3,NCI-H647,0.111
4,CAL-12T,0.784
5,NCI-H1651,0.848
6,EPLC-272H,0.32
7,NCI-H2228,0.145
8,NCI-H1355,0.683
9,NCI-H3122,0.115
10,NCI-H1437,1.1
11,NCI-H1755,0.31
12,NCI-H2023,0.628
13,HCC-15,0.373
14,NCI-H1793,0.217
15,PC-14,0.221
16,EKVX,0.934
17,LC-2-ad,1
18,NCI-H1944,0.653
19,NCI-H1975,0.131
20,RERF-LC-KJ,1.09
21,NCI-H358,0.469
22,NCI-H650,0.77
23,PC-3 [JPC-3],0.687

# Same assay, conditions: first compound 40 µM
row,Cell Line,relative viability
1,LXF-289,0.673
2,NCI-H23,0.197
3,NCI-H647,0.15
4,CAL-12T,0.401
5,NCI-H1651,0.802
6,EPLC-272H,0.197
7,NCI-H2228,0.13
8,NCI-H1355,0.774
9,NCI-H3122,0.088
10,NCI-H1437,0.922
11,NCI-H1755,0.377
12,NCI-H2023,0.732
13,HCC-15,0.319
14,NCI-H1793,0.234
15,PC-14,0.311
16,EKVX,0.877
17,LC-2-ad,1.06
18,NCI-H1944,0.615
19,NCI-H1975,0.337
20,RERF-LC-KJ,0.956
21,ABC-1,0.627
22,NCI-H358,0.471
23,NCI-H650,0.665
24,PC-3 [JPC-3],0.657

# Compound: C1CC(C2=C(C1)C3=C(N2)C=CC(=C3)Cl)C(=O)N [Selisistat] + Cc1nc(Nc2ncc(C(=O)Nc3c(C)cccc3Cl)s2)cc(N2CCN(CCO)CC2)n1 [Dasatinib] (partner 0.075 µM)
# Assay: as above
# Settings: first compound 0.4 µM
# Procedure, shortened: as §1
row,Cell Line,relative viability
1,LXF-289,0.286
2,NCI-H23,0.784
3,NCI-H647,0.229
